Experimental data: patent US7166637B2, “Hydroxyindoles, their use as inhibitors of phosphodiesterase 4, and processes for preparing them” (Elbion AG, priority 2002, dated 2007)

Each compound was assayed against PDE 4 (cytosolic fraction from human polymorphonuclear lymphocytes (PMNLs)) (assay: Inhibition of phosphodiesterase 4 (SPA assay, [3H]-cAMP substrate)). Conditions: enzyme preparation from human PMNLs; 0.5 μM [3H]-cAMP; 37° C., 30 minutes.
Assay type: biochemical
Description: The PDE 4 activity is determined using enzyme preparations from human polymorphonuclear lymphocytes (PMNLs).
Human blood (buffy coats) was anticoagulated with citrate. The platelet-rich plasma in the supernatant is separated from the erythrocytes and leucocytes by centrifuging at 700×g for 20 minutes at room temperature (RT). The PMNLs for the PDE 4 determination are isolated by means of a subsequent dextran sedimentation followed by a gradient centrifugation using Ficoll-Paque. After the cells have been washed twice, the erythrocytes which are still present are lysed within 6 minutes by adding 10 ml of hypotonic buffer (155 mM NH4Cl, 10 mM NaHCO3, 0.1 mM EDTA, pH=7.4) at 4° C. The PMNLs, which are still intact, are washed a further two times with PBS and lysed by ultrasonication. The supernatant obtained after centrifuging at 48 000×g at 4° C. for one hour contains the cytosolic PDE 4 fraction and is used for the PDE 4 measurements.
The phosphodiesterase activity is measured using a modified Amersham Pharmacia Biotech method, i.e. an SPA (scintillation proximity assay) assay. The reaction mixtures contain buffer (50 mM tris-HCl (pH 7.4), 5 mM MgCl2, 100 μM cGMP), varying concentrations of the inhibitors, and the corresponding enzyme preparation. The reaction is started by adding the substrate, i.e. 0.5 μM [^3H]-cAMP. The final volume is 100 μl. Test substances are prepared as stock solutions in DMSO. The concentration of DMSO in the reaction mixture is 1% v/v. This DMSO concentration has no effect on PDE activity. After the reaction has been started by adding the substrate, the samples are incubated at 37° C. for 30 minutes. The reaction is stopped by adding a defined quantity of SPA beads and the samples are measured in a beta counter after one hour. The nonspecific enzyme activity (i.e. the blank) is determined in the presence of 100 μM rolipram and subtracted from the test values. The incubation mixtures for the PDE 4 assay contain 100 μM cGMP in order to inhibit any contamination of PDE 3 which may be present.

| Compound | IC50 [nM] |
| --- | --- |
| O=C(Nc1c(Cl)cncc1Cl)C(=O)c1cn(Cc2ccc(Cl)cc2)c2c(O)cccc12 [Compound 2, N-(3,5-dichloropyrdin-4-yl)-[1-(4-chlorobenzyl)-7-hydroxyindol-3-yl]glyoxylamide] | 2 |
| O=C(Nc1c(Cl)cncc1Cl)C(=O)c1cn(Cc2ccc(F)cc2)c2cccc(O)c12 [Compound 4] | 938 |
| O=C(Nc1c(Cl)cncc1Cl)C(=O)c1cn(Cc2ccc(F)cc2)c2c(O)cccc12 [Compound 5] | 15 |
| O=C(Nc1c(Cl)cncc1Cl)C(=O)c1cn(Cc2ccccc2F)c2c(O)cccc12 [Compound 6] | 1 |
| O=C(Nc1c(Cl)cncc1Cl)C(=O)c1cn(Cc2cccc([N+](=O)[O-])c2)c2c(O)cccc12 [Compound 7] | 2 |
| O=C(Nc1c(Cl)cncc1Cl)C(=O)c1cn(Cc2c(F)cccc2F)c2c(O)cccc12 [Compound 8] | 2 |
| CC(C)Cn1cc(C(=O)C(=O)Nc2c(Cl)cncc2Cl)c2cccc(O)c21 [Compound 15] | 20 |
| O=C(Nc1c(Cl)cncc1Cl)C(=O)c1cn(CC2CC2)c2c(O)cccc12 [Compound 16] | 30 |
| O=C(Nc1c(Cl)cccc1Cl)C(=O)c1cn(Cc2ccc(F)cc2)c2c(O)cccc12 [Compound 17] | 141 |
| O=C(Nc1c(Cl)cncc1Cl)C(=O)c1cn(Cc2ccc(O)cc2)c2c(O)cccc12 [Compound 22] | 3 |
